“Also recorded” adds a separate entry of the source. Read-outs that look alike come from different tables or passages of the source.
How the values were obtained:
[1] = system: Mb; test: S/N ratios of different chemiluminescent substrates with Mb; format: biochemical, human; details: signal integrated over first five seconds
Experimental: (§1) Centricon ultrafiltration filters were obtained from Amicon (Daven, Mass.). Polystyrene tubes (5.0 mL volume, 75×12 mm) used for the assay were manufactured by Sarstedt (Arlington Heights, Ill.). The chemiluminescent substrate, 7-dimethylamino-naphthalene-1,2-dicarbonic acid-hydrazide (7-DNH) was purchased from Boehringer Mannheim (Indianapolis, Ind.). PS-1 acridan substrate (solution A and solution B) was obtained from Lumigen Inc. (Southfield, Mich.). […] Tween-20 and Sodium Chloride were purchased from Fisher Scientific (Fair Lawn, N.J.). General laboratory chemicals such as, boric acid, sodium acetate, Trizma base, HEPES, hydrogen peroxide (H2 O2) solution (30.0%), human hemoglobin, catalase, 6-amino-2,3-dihydro-1,4-phthallazinedione (4-aminophthalhydrazide), N-(4-Aminobutyl)-N-ethyl-isoluminol, Triton X-100, (3-[3-cholamidopropyl)dimethylammonio]-1-propanesulfonate) (CHAPS), hydrogen disulfite, methimazole, ofloxacin, ascorbic acid, ammonium chloride, EDTA, Hb, bilirubin, and lactoperoxidase (LPO) were purchased from Sigma Chemical Company (St. Louis, Mo.). Human heart myoglobin and myeloperoxidase were obtained from Calbiochem (La Jolla, Calif.) Thyroid peroxidase (TPO) was purchased from O.E.M. Concepts, Inc. (Toms River, N.J.). Eosinophil peroxidase was provided by Dr. Greipp (Mayo Clinic). Fresh EDTA anticoagulated blood was collected from donors showing no signs of sickness and washed with physiological saline to isolate RBC.
(§2) Fresh urine specimens were obtained in routine commercial collection vessels. The specimens were, either, analyzed immediately or stored at 4° C. until analysis. The urine samples were prepared for analysis by adding CTAC to produce a 0.1% solution, unless otherwise noted, in order to lyse the erythrocytes, thereby releasing hemoglobin. The assays were performed in a 75×12 mm polystyrene tube. The assay solutions were prepared by adding to each tube 294 μL of high ionic strength buffer, 5.0 μL of the prepared urine samples or standards, and […] of substrate (0.4 mM solution of 7-DNH), unless otherwise noted. […] The standard curve was obtained by plotting chemiluminescence emission in Relative Light Units (RLU) versus Hb concentration (μg/mL) or number of RBCs (#RBC/high power field (hpf)). Cell counts were determined with the Yellow Iris® instrument and confirmed by a manual hemocytometer count.
The substrate (7-DNH) and the ultrafiltered urine were prepared as described above. The kinetics of chemiluminescence was determined by monitoring the chemiluminescence signal over a 20 second time period following addition of the substrate (7-DNH) to ultrafiltered urine. Measurements were performed either in the presence or absence of Hb. […]

[2] = system: Hb; test: S/N ratios of different chemiluminescent substrates with Hb; format: biochemical, human; details: signal integrated over first five seconds
Experimental: as §1, §2
The substrate (7-DNH) and the ultrafiltered urine were prepared as described above. The kinetics of chemiluminescence was determined by monitoring the chemiluminescence signal over a 20 second time period following addition of the substrate (7-DNH) to ultrafiltered urine. Measurements were performed either in the presence or absence of Hb. Experiments performed in the absence of Hb provide background measurements in relative light units (RLU).

[3] = biological target: T1, MPO (Homo sapiens, UniProt P05164); test: Drug interferences with MPO (PS-1 assay in urine); format: biochemical; details: for inhibition at 0.001 µg/mL: 1 ng/mL
T1 sequence (P05164 49-745): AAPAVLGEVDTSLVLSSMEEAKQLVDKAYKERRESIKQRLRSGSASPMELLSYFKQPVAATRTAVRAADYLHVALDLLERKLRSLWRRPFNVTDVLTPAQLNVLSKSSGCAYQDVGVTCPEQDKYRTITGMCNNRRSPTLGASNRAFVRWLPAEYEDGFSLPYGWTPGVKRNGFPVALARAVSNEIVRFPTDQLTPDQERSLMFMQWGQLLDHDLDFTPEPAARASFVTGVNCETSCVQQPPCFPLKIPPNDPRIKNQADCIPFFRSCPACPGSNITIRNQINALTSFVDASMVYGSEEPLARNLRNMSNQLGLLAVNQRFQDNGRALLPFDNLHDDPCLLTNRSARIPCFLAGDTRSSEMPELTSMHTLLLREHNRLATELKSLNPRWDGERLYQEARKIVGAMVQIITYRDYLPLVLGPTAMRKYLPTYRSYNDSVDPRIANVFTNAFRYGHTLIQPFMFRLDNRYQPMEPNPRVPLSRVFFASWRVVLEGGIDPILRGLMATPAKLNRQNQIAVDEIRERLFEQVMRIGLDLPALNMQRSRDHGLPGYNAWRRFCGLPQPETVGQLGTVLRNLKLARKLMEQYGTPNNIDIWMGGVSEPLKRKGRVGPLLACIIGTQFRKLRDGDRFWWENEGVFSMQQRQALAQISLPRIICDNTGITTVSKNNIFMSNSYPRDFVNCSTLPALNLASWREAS
Experimental: (§3) Urine samples were diluted 1:4 into distilled water to minimize inhibitory effects observed with hyperosmolal urines. Two μL of diluted urine were added to 12×75 mm polystyrene test tube containing 50 μL of the PS-1 solution. The tubes were incubated at 37° C. for 5 minutes. MPO activity was determined by chemiluminescence emission using a Turner TD-20e luminometer maintained at 37° C. Leukocyte counting was performed manually by using a hemacytometer chamber (Kova Glasstic slide, Hycor, Irvine, Calif.) on each urine sample to determine the number of cells/mL.
Several possible interfering substances were added to urine and tested for inhibitory effects. Several common medications were also tested for potential inhibitory effects.

[4] = system: Hb; test: Interference studies in Hb assay (7-DNH chemiluminescence); format: biochemical, human; details: for Level of Interference (in words): highest conc: ascorbic acid 10, bilirubin 10, Cu++/Mn++ 40, sodium azide 500 μg/mL, uric acid 1 mg/mL; for Level of Interference: level producing a signal equivalent to 3 RBC per high power field, fixed Hb concentration
Experimental: Numerous potential interfering substances, which either enhance or quench the signal generated by cyclic hydrazides, were evaluated. The effects of these potentially interfering substances on light emission was investigated at varying concentrations of the interfering composition. Assays were performed using serial dilutions of the potential interfering compositions in ultrafiltered urine at a fixed concentration of Hb. Comparisons of chemiluminescence emission were made between a reference solution (Hb in ultrafiltered urine) without added interfering compositions and solutions with added interferant.
Generally, the value of 3 RBC per high power field is the normal cutoff point.
Bilirubin and uric acid were examined as a possible negative interfering compositions because of their chemical structure which may quench energy emitted.

[5] = biological target: T1, MPO; test: Effects of potential interfering substances in WBC (MPO, PS-1) assay; format: biochemical; details: highest tested: uric acid 1 mg/mL, ascorbic acid 100 μg/mL, bilirubin 50 μg/mL, trolox 1 mg/mL
Experimental: as §3
Several possible interfering substances were added to urine and tested for inhibitory effects. Several common medications were also tested for potential inhibitory effects. […] Hb at concentrations of >10 μg/mL and Mb at concentrations >2 μg/mL were detected by the PS-1 substrate as the chemiluminescence emission was above the normal urine background. Samples grossly populated with bacteria caused slight inhibition of the MPO activity. Urine samples may contain many epithelial cells, casts, crystals, and numerous artifacts but none of these appear to interfere with the chemiluminescence emission from MPO.

[6] = system: Hb; test: Effects of detergents on chemiluminescence emission in Hb assay; format: biochemical, human
Experimental: Increasing concentrations of Hb were assayed with equal concentrations of different detergents to assess the effectiveness of the detergents at enhancing chemiluminescence emission. The effectiveness of the detergents was also compared at different time periods and varying concentrations. The ultrafiltered urine was assumed to contain neither Hb nor Mb and was used as the blank to assess background chemiluminescence emission with the substrate.

Compound: CCN(CCCCN)c1ccc2c(=O)[nH][nH]c(=O)c2c1 [ABEI, N-(4-Aminobutyl)-N-ethyl-isoluminol]
- S/N for Mb [1]: 6
- S/N for Hb [2]: 3

Compound: Cn1c(=O)c2[nH]cnc2n(C)c1=O [Aminophyllin]
- % Inhibition of MPO ([3]; 100 μg/mL): 4%

Compound: CN(C)CCC=C1c2ccccc2CCc2ccccc21 [Amitriptylene]
- inhibition at 100 µg/mL ([3]; 100 μg/mL, read-out: % Inhibition of MPO): 75%

Compound: O=C1O[C@H]([C@@H](O)CO)C(O)=C1O [Ascorbic Acid, ascorbic acid]
- Level of Interference (in words) [4]: None
- Level of Interference (in words) ([4]; listed as ascorbic acid): did not interfere; also recorded: did not have an inhibitory effect on the reaction
- Interference (in words) [5]: None
- Interference (in words) ([5]; listed as ascorbic acid): did not affect assay performance

Compound: C=CC1=C(C)/C(=C/c2[nH]c(Cc3[nH]c(/C=C4\NC(=O)C(C)=C4C=C)c(C)c3CCC(=O)O)c(CCC(=O)O)c2C)NC1=O [Bilirubin, bilirubin]
- Level of Interference (in words) [4]: None
- Level of Interference (in words) ([4]; listed as bilirubin): did not interfere
- Interference (in words) [5]: None
- Interference (in words) ([5]; listed as bilirubin): did not affect assay performance

Compound: CCCCCCCCCCCCCCCC[N+](C)(C)C.[Cl-] [CTAC, cetyltrimethyl-ammonium chloride]
- enhancement of chemiluminescence signal ([6]; 7-DNH, various Hb concentrations): highest chemiluminescence signal
- optimal concentration for enhancement of signal ([6]; dose-dependent enhancement, FIG. 4B): 0.1%

Compound: C[C@]12CC[C@@H]3c4ccc(O)cc4CC[C@H]3[C@@H]1CC[C@@H]2O [Estradiol]
- inhibition at 0.001 µg/mL [3]: 20%

Compound: C[C@]12CC[C@@H]3c4ccc(O)cc4CC[C@H]3[C@@H]1C[C@@H](O)[C@@H]2O [Estriol]
- inhibition at 0.001 µg/mL [3]: 15%

Compound: Nc1ccc2c(=O)[nH][nH]c(=O)c2c1 [Isoluminol, 6-amino-2,3-dihydro-1,4-phthallazinedione]
- S/N for Mb [1]: 5
- S/N for Hb [2]: 3

Compound: CC(C(=O)O)c1cccc(C(=O)c2ccccc2)c1 (stereo not shown) [Ketoprofyn]
- inhibition at 100 mg/day ([3]; read-out: % Inhibition of MPO): 10%

Compound: Nc1cccc2c(=O)[nH][nH]c(=O)c12 [Luminol]
- S/N for Mb [1]: 73
- S/N for Hb [2]: 89

Compound: COc1ccc2cc([C@H](C)C(=O)O)ccc2c1 [Naprosyn]
- inhibition at 800 mg/day ([3]; read-out: % Inhibition of MPO): 5%

Compound: C[C@]12C=CC(=O)C=C1CC[C@@H]1[C@@H]2[C@@H](O)C[C@@]2(C)[C@H]1CC[C@]2(O)C(=O)CO [Prednisolone]
- inhibition at 100 µg/mL ([3]; read-out: % Inhibition of MPO): 13%

Compound: [N-]=[N+]=[N-] [Sodium Azide, sodium azide]
- Level of Interference (in words) [4]: None
- Level of Interference (in words) ([4]; listed as sodium azide): did not interfere

Compound: Cn1c(=O)c2[nH]cnc2n(C)c1=O [Theophyllin]
- % Inhibition of MPO ([3]; 100 μg/mL): 11%

Compound: Cc1c(C)c2c(c(C)c1O)CCC(C)(C(=O)O)O2 (stereo not shown) [Trolox]
- Interference (in words) [5]: None
- Interference (in words) ([5]; listed as trolox): did not affect assay performance

Compound: O=c1[nH]c(=O)c2[nH]c(=O)[nH]c2[nH]1 [Uric Acid, uric acid]
- Level of Interference (in words) [4]: None
- Level of Interference (in words) ([4]; listed as Uric acid): did not interfere
- Interference (in words) [5]: None
- Interference (in words) ([5]; listed as uric acid): did not affect assay performance

Compound: Catalase
- Level of Interference (in words) [4]: only interfere at very high concentrations
- Level of Interference [4]: > 7.8 µg/mL

Compound: Eosinophil peroxidase: Eosinophil peroxidase was provided by Dr. Greipp (Mayo Clinic)
- Level of Interference (in words) [4]: only interfere at very high concentrations
- Level of Interference [4]: > 0.007 µg/mL

Compound: Superoxide dismutase
- Level of Interference [4]: > 125 µg/mL

From patent US6087121A, “Chemiluminescent detection of heme proteins in biological samples” (Mayo Foundation for Medical Education and Research, priority 1999, dated 2000)
